Species: Rattus norvegicus
Assay: DrugMatrix - Regimen: Daily Repeat
Type: toxicity, organism-based, Sprague-Dawley
Design: regimen Daily Repeat, gender Male, age 6-8 weeks
Conditions: in vivo, po, route oral GAVAGE, vehicle .5 % CMC; for ABSOLUTE BASOPHIL / ABSOLUTE EOSINOPHIL / ABSOLUTE LYMPHOCYTE / ABSOLUTE MONOCYTE / ABSOLUTE SEGMENTED NEUTROPHIL / BASOPHIL / EOSINOPHIL / ERYTHROCYTE COUNT / HEMATOCRIT / HEMOGLOBIN / LEUKOCYTE COUNT / LYMPHOCYTE / MEAN CORPUSCULAR HEMOGLOBIN / MEAN CORPUSCULAR HEMOGLOBIN CONCENTRATION / MEAN CORPUSCULAR VOLUME / MONOCYTE / NEUTROPHIL / NUCLEATED RED BLOOD CELLS / PLATELET COUNT: tissue Blood; for ALANINE AMINOTRANSFERASE / ALBUMIN / ALKALINE PHOSPHATASE / ASPARTATE AMINOTRANSFERASE / BLOOD UREA NITROGEN / CARBON DIOXIDE / CHLORIDE / CHOLESTEROL / CREATINE PHOSPHOKINASE / CREATININE / GLUCOSE / LACTATE DEHYDROGENASE / LIPASE / PHOSPHORUS / POTASSIUM / SODIUM / TOTAL BILIRUBIN / TOTAL PROTEIN / URIC ACID: tissue Plasma
[1] = 0 mg/kg, 72 h, dose level Control, time 3 day
[2] = 0 mg/kg, 120 h, dose level Control, time 5 day
[3] = 100 mg/kg, 72 h, dose level Low, time 3 day

Question: With `COC1=C(OC)C(=O)C(CCCCCCCCCCO)=C(C)C1=O` [IDEBENONE] as the molecule, how does the “ABSOLUTE BASOPHIL” value [1] read?
Answer: 0 CELLS/uL

Question: And the “ABSOLUTE EOSINOPHIL” value [1]?
Answer: 0 CELLS/uL

Question: And the “ABSOLUTE LYMPHOCYTE” value [1]?
Answer: 12191.17 CELLS/uL

Question: And the “ABSOLUTE MONOCYTE” value [1]?
Answer: 183.17 CELLS/uL

Question: What about the “ABSOLUTE SEGMENTED NEUTROPHIL” value [1] of the same molecule?
Answer: 1192.33 CELLS/uL

Question: What about the BASOPHIL [1] of the same molecule?
Answer: 0%

Question: What about the EOSINOPHIL [1] of the same molecule?
Answer: 0%

Question: And the “ERYTHROCYTE COUNT” value [1]?
Answer: 5.51 x10E6/uL

Question: And the HEMATOCRIT [1]?
Answer: 35.45%

Question: And the HEMOGLOBIN [1]?
Answer: 13.82 G/DL

Question: And the “LEUKOCYTE COUNT” value [1]?
Answer: 13.57 x10E3/uL

Question: What about the LYMPHOCYTE [1] of the same molecule?
Answer: 89.83%

Question: And the “MEAN CORPUSCULAR HEMOGLOBIN” value [1]?
Answer: 25.1 pg

Question: What about the “MEAN CORPUSCULAR HEMOGLOBIN CONCENTRATION” value [1] of the same molecule?
Answer: 38.98 G/DL

Question: What about the “MEAN CORPUSCULAR VOLUME” value [1] of the same molecule?
Answer: 64.42 fL

Question: What about the MONOCYTE [1] of the same molecule?
Answer: 1.33%

Question: What about the NEUTROPHIL [1] of the same molecule?
Answer: 8.83%

Question: And the “NUCLEATED RED BLOOD CELLS” value [1]?
Answer: 0 /100WBC

Question: And the “PLATELET COUNT” value [1]?
Answer: 1118.17 x10E3/uL

Question: And the “ALANINE AMINOTRANSFERASE” value [1]?
Answer: 55 u/L

Question: What about the ALBUMIN [1] of the same molecule?
Answer: 4.15 G/DL

Question: What about the “ALKALINE PHOSPHATASE” value [1] of the same molecule?
Answer: 449.5 u/L

Question: And the “ASPARTATE AMINOTRANSFERASE” value [1]?
Answer: 112.83 u/L

Question: What about the “BLOOD UREA NITROGEN” value [1] of the same molecule?
Answer: 17.33 mg/dL

Question: And the “CARBON DIOXIDE” value [1]?
Answer: 29.5 mmol/L

Question: What about the CHLORIDE [1] of the same molecule?
Answer: 101 MEQ/L

Question: What about the CHOLESTEROL [1] of the same molecule?
Answer: 70 mg/dL

Question: And the “CREATINE PHOSPHOKINASE” value [1]?
Answer: 1325.83 u/L

Question: And the CREATININE [1]?
Answer: 0.18 mg/dL

Question: What about the GLUCOSE [1] of the same molecule?
Answer: 171.5 mg/dL

Question: What about the “LACTATE DEHYDROGENASE” value [1] of the same molecule?
Answer: 386 u/L

Question: And the LIPASE [1]?
Answer: 10 u/L

Question: And the PHOSPHORUS [1]?
Answer: 11.57 mg/dL

Question: And the POTASSIUM [1]?
Answer: 6.21 MEQ/L

Question: What about the SODIUM [1] of the same molecule?
Answer: 141.65 MEQ/L

Question: What about the “TOTAL BILIRUBIN” value [1] of the same molecule?
Answer: 0.15 mg/dL

Question: And the “TOTAL PROTEIN” value [1]?
Answer: 5.75 G/DL

Question: What about the “URIC ACID” value [1] of the same molecule?
Answer: 1.28 mg/dL

Question: And the “ABSOLUTE BASOPHIL” value [2]?
Answer: 0 CELLS/uL

Question: And the “ABSOLUTE EOSINOPHIL” value [2]?
Answer: 138.17 CELLS/uL

Question: What about the “ABSOLUTE LYMPHOCYTE” value [2] of the same molecule?
Answer: 13283.17 CELLS/uL

Question: And the “ABSOLUTE MONOCYTE” value [2]?
Answer: 303.83 CELLS/uL

Question: And the “ABSOLUTE SEGMENTED NEUTROPHIL” value [2]?
Answer: 1308.17 CELLS/uL

Question: And the BASOPHIL [2]?
Answer: 0%

Question: What about the EOSINOPHIL [2] of the same molecule?
Answer: 1%

Question: What about the “ERYTHROCYTE COUNT” value [2] of the same molecule?
Answer: 5.32 x10E6/uL

Question: And the HEMATOCRIT [2]?
Answer: 33.8%

Question: And the HEMOGLOBIN [2]?
Answer: 13.63 G/DL

Question: What about the “LEUKOCYTE COUNT” value [2] of the same molecule?
Answer: 15.03 x10E3/uL

Question: What about the LYMPHOCYTE [2] of the same molecule?
Answer: 88.33%

Question: And the “MEAN CORPUSCULAR HEMOGLOBIN” value [2]?
Answer: 25.68 pg

Question: And the “MEAN CORPUSCULAR HEMOGLOBIN CONCENTRATION” value [2]?
Answer: 40.35 G/DL

Question: What about the “MEAN CORPUSCULAR VOLUME” value [2] of the same molecule?
Answer: 63.67 fL

Question: And the MONOCYTE [2]?
Answer: 1.83%

Question: What about the NEUTROPHIL [2] of the same molecule?
Answer: 8.83%

Question: What about the “NUCLEATED RED BLOOD CELLS” value [2] of the same molecule?
Answer: 0 /100WBC

Question: What about the “PLATELET COUNT” value [2] of the same molecule?
Answer: 1097.5 x10E3/uL

Question: And the “ALANINE AMINOTRANSFERASE” value [2]?
Answer: 54.5 u/L

Question: What about the ALBUMIN [2] of the same molecule?
Answer: 4.27 G/DL

Question: And the “ALKALINE PHOSPHATASE” value [2]?
Answer: 337 u/L

Question: What about the “ASPARTATE AMINOTRANSFERASE” value [2] of the same molecule?
Answer: 94.67 u/L

Question: And the “BLOOD UREA NITROGEN” value [2]?
Answer: 17 mg/dL

Question: And the “CARBON DIOXIDE” value [2]?
Answer: 28.33 mmol/L

Question: What about the CHLORIDE [2] of the same molecule?
Answer: 101.5 MEQ/L

Question: And the CHOLESTEROL [2]?
Answer: 71.33 mg/dL

Question: What about the “CREATINE PHOSPHOKINASE” value [2] of the same molecule?
Answer: 628.17 u/L

Question: What about the CREATININE [2] of the same molecule?
Answer: 0.19 mg/dL

Question: And the GLUCOSE [2]?
Answer: 177.83 mg/dL

Question: And the “LACTATE DEHYDROGENASE” value [2]?
Answer: 500.5 u/L

Question: What about the LIPASE [2] of the same molecule?
Answer: 9.5 u/L

Question: What about the PHOSPHORUS [2] of the same molecule?
Answer: 12.3 mg/dL

Question: And the POTASSIUM [2]?
Answer: 5.63 MEQ/L

Question: And the SODIUM [2]?
Answer: 143.03 MEQ/L

Question: And the “TOTAL BILIRUBIN” value [2]?
Answer: 0.2 mg/dL

Question: What about the “TOTAL PROTEIN” value [2] of the same molecule?
Answer: 6.02 G/DL

Question: What about the “URIC ACID” value [2] of the same molecule?
Answer: 1.5 mg/dL

Question: And the “ABSOLUTE BASOPHIL” value [3]?
Answer: 0 CELLS/uL

Question: What about the “ABSOLUTE EOSINOPHIL” value [3] of the same molecule?
Answer: 86.67 CELLS/uL

Question: And the “ABSOLUTE LYMPHOCYTE” value [3]?
Answer: 16240.33 CELLS/uL

Question: And the “ABSOLUTE MONOCYTE” value [3]?
Answer: 104 CELLS/uL

Question: What about the “ABSOLUTE SEGMENTED NEUTROPHIL” value [3] of the same molecule?
Answer: 1602.33 CELLS/uL

Question: What about the BASOPHIL [3] of the same molecule?
Answer: 0%

Question: And the EOSINOPHIL [3]?
Answer: 0.67%

Question: What about the “ERYTHROCYTE COUNT” value [3] of the same molecule?
Answer: 5.22 x10E6/uL

Question: And the HEMATOCRIT [3]?
Answer: 32.37%

Question: And the HEMOGLOBIN [3]?
Answer: 13.17 G/DL

Question: What about the “LEUKOCYTE COUNT” value [3] of the same molecule?
Answer: 18.03 x10E3/uL

Question: And the LYMPHOCYTE [3]?
Answer: 90.33%

Question: What about the “MEAN CORPUSCULAR HEMOGLOBIN” value [3] of the same molecule?
Answer: 25.27 pg

Question: And the “MEAN CORPUSCULAR HEMOGLOBIN CONCENTRATION” value [3]?
Answer: 40.67 G/DL

Question: And the “MEAN CORPUSCULAR VOLUME” value [3]?
Answer: 62.07 fL

Question: What about the MONOCYTE [3] of the same molecule?
Answer: 0.67%

Question: And the NEUTROPHIL [3]?
Answer: 8.33%

Question: And the “NUCLEATED RED BLOOD CELLS” value [3]?
Answer: 0 /100WBC

Question: What about the “PLATELET COUNT” value [3] of the same molecule?
Answer: 1354 x10E3/uL

Question: What about the “ALANINE AMINOTRANSFERASE” value [3] of the same molecule?
Answer: 57.67 u/L

Question: What about the ALBUMIN [3] of the same molecule?
Answer: 3.97 G/DL

Question: And the “ALKALINE PHOSPHATASE” value [3]?
Answer: 401 u/L

Question: And the “ASPARTATE AMINOTRANSFERASE” value [3]?
Answer: 105.67 u/L

Question: What about the “BLOOD UREA NITROGEN” value [3] of the same molecule?
Answer: 17.67 mg/dL

Question: What about the “CARBON DIOXIDE” value [3] of the same molecule?
Answer: 26.33 mmol/L

Question: What about the CHLORIDE [3] of the same molecule?
Answer: 101 MEQ/L

Question: And the CHOLESTEROL [3]?
Answer: 67 mg/dL

Question: And the “CREATINE PHOSPHOKINASE” value [3]?
Answer: 961.67 u/L

Question: And the CREATININE [3]?
Answer: 0.19 mg/dL

Question: And the GLUCOSE [3]?
Answer: 227 mg/dL

Question: And the “LACTATE DEHYDROGENASE” value [3]?
Answer: 252 u/L

Question: What about the LIPASE [3] of the same molecule?
Answer: 9.67 u/L

Question: And the PHOSPHORUS [3]?
Answer: 13.13 mg/dL

Question: What about the POTASSIUM [3] of the same molecule?
Answer: 6.02 MEQ/L

Question: What about the SODIUM [3] of the same molecule?
Answer: 142.43 MEQ/L

Question: And the “TOTAL BILIRUBIN” value [3]?
Answer: 0.2 mg/dL

Question: And the “TOTAL PROTEIN” value [3]?
Answer: 5.47 G/DL

Question: What about the “URIC ACID” value [3] of the same molecule?
Answer: 1.67 mg/dL
